This is an account of results in ChEMBL document CHEMBL1124467, “The binding of benzenesulfonamides to carbonic anhydrase enzyme. A molecular mechanics study and quantitative structure-activity relationships” (J Med Chem, 1989).

Assay [1] addresses T1, Carbonic anhydrase (Bos taurus) (UniProt P00921+Q95323+P18915+Q3SZX4). Briefly: Inhibitory activity against Carbonic anhydrase. In kind it is protein assay.
The species named for assay [2] is Bos taurus. Kind of assay: Inhibitory activity against bovine erythrocyte B enzyme.
Assay [3] has as its target T1, Carbonic anhydrase (Bos taurus).
Description: Inhibitory activity against bovine Carbonic anhydrase

The compound `NS(=O)(=O)c1ccc(Cl)c([N+](=O)[O-])c1` gave a Log II50 in assay [1] of 2.13.

Take `CC(=O)c1ccc(S(N)(=O)=O)cc1`: the Log II50 in assay [2] amounted to 1.32.

The compound `NS(=O)(=O)c1ccc([N+](=O)[O-])c(Cl)c1` returned a Log II50 in assay [3] of 1.74.

`NS(=O)(=O)c1cccc(Cl)c1` gave a Log II50 in assay [2] of 1.

For `Cc1ccccc1S(N)(=O)=O`, the Log II50 in assay [3] turned out to be 0.16.

In assay [3], `NS(=O)(=O)c1cccc([N+](=O)[O-])c1` had a Log II50 of 1.25.

`Cc1ccc(S(N)(=O)=O)cc1C` showed a Log II50 in assay [3] of 0.48.

In assay [3], `NS(=O)(=O)c1ccc(Cl)cc1` displayed a Log II50 of 1.08.

Turning to `COc1ccc(S(N)(=O)=O)cc1`, in assay [3], the Log II50 came out at 0.71.

On to `Cc1cccc(S(N)(=O)=O)c1`, for which, in assay [3], the Log II50 came to 0.66.

For `CC(=O)Nc1ccc(S(N)(=O)=O)cc1`, the Log II50 in assay [3] stood at 1.48.

For the compound `NS(=O)(=O)c1ccccc1`, in assay [3], the Log II50 amounted to 0.58.

With `NS(=O)(=O)c1ccccc1Cl`, the Log II50 in assay [2] came to 0.88.

In turn, `NS(=O)(=O)c1ccc(Cl)c(Cl)c1` had a Log II50 in assay [3] of 1.76.

As to `Cc1ccc(S(N)(=O)=O)cc1`, the Log II50 in assay [3] was 0.78.

In assay [3], `CNc1ccc(S(N)(=O)=O)cc1` showed a Log II50 of 0.18.
